From ChEMBL document CHEMBL1201862, “PubChem BioAssay data set” (2004)
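Compound exposure: 48 hours, 5 concentrations, 96-well plates. GI50 marks 50% less growth.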 Activity calls are given as the source filed them. Rule as the data show it: active = GI50 up to about 1.1 µM and inactive = higher.

Key:
Assay in all cases: growth of human tumour cells (NCI), 48 h
IGROV-1 = tested on: IGROV-1
KM12 = tested on: KM12
LOX IMVI = tested on: LOX IMVI
M14 = tested on: M14
Malme-3M = tested on: Malme-3M
NCI-H23 = tested on: NCI-H23
NCI-H460 = tested on: NCI-H460
SF-268 = tested on: SF-268
SK-MEL-2 = tested on: SK-MEL-2
SK-MEL-5 = tested on: SK-MEL-5
SK-OV-3 = tested on: SK-OV-3
SNB-19 = tested on: SNB-19
UACC-62 = tested on: UACC-62
COLO 205 = tested on: COLO 205
DU-145 = tested on: DU-145
MDA-MB-231 = tested on: MDA-MB-231
MDA-N = tested on: MDA-N
PC-3 = tested on: PC-3
T47D = tested on: T47D

SMILES	GI50 (IGROV-1)	GI50 (KM12)	GI50 (LOX IMVI)	GI50 (M14)	GI50 (Malme-3M)	GI50 (NCI-H23)	GI50 (NCI-H460)	GI50 (SF-268)	GI50 (SK-MEL-2)	GI50 (SK-MEL-5)	GI50 (SK-OV-3)	GI50 (SNB-19)	GI50 (UACC-62)	GI50 (COLO 205)	GI50 (DU-145)	GI50 (MDA-MB-231)	GI50 (MDA-N)	GI50 (PC-3)	GI50 (T47D)
CCCCCCCCCCCCCCCc1nnc(SCC(=O)O)[nH]1	36.1 µM (inactive)	48.3 µM (inactive)	33.4 µM (inactive)	19.3 µM (inactive)	> 100 µM (inactive)	> 100 µM (inactive)	> 100 µM (inactive)	42 µM (inactive)	37.9 µM (inactive)	> 100 µM (inactive)	45.4 µM (inactive)	49.7 µM (inactive)	42.2 µM (inactive)	–	–	–	–	–	–
Cc1cc2c3c(coc3c1-c1c(C)cc3c4c(coc14)C(=O)C(O)=C3C(C)C)C(=O)C(O)=C2C(C)C	3.99 µM (inactive)	4.3 µM (inactive)	5.7 µM (inactive)	11.7 µM (inactive)	15.6 µM (inactive)	3.53 µM (inactive)	4.37 µM (inactive)	5.08 µM (inactive)	4.74 µM (inactive)	15.1 µM (inactive)	19.2 µM (inactive)	4.35 µM (inactive)	3.73 µM (inactive)	2.41 µM (inactive)	–	–	–	–	–
CCSC(SCC)=C1C(=O)N(c2ccccc2)N=C1C	17.4 µM (inactive)	19.3 µM (inactive)	12.4 µM (inactive)	13.6 µM (inactive)	10.4 µM (inactive)	18.3 µM (inactive)	16 µM (inactive)	14.1 µM (inactive)	15.8 µM (inactive)	18.3 µM (inactive)	17.9 µM (inactive)	25.2 µM (inactive)	13.7 µM (inactive)	2.27 µM (inactive)	–	–	–	–	–
COc1cc(C2c3cc4c(cc3[C@@H](N(C)c3ccc(N(C)C)cc3)C3COC(=O)C23)OCO4)cc(OC)c1O (stereo not given in full)	0.536 µM (active)	0.377 µM (active)	0.437 µM (active)	0.305 µM (active)	–	0.291 µM (active)	0.352 µM (active)	0.343 µM (active)	0.33 µM (active)	0.383 µM (active)	0.402 µM (active)	2.15 µM (inactive)	0.472 µM (active)	0.479 µM (active)	–	–	–	–	–
O=C(c1cccs1)N(C(=S)N1CCN(c2ccccn2)CC1)C1CCCCC1	> 100 µM (inactive)	60.5 µM (inactive)	77.4 µM (inactive)	76.4 µM (inactive)	36.3 µM (inactive)	> 100 µM (inactive)	54.6 µM (inactive)	> 100 µM (inactive)	58.6 µM (inactive)	31.3 µM (inactive)	> 100 µM (inactive)	> 100 µM (inactive)	> 100 µM (inactive)	22.4 µM (inactive)	–	–	–	–	–
CCCCS/C(=C(/C#N)C(N)=O)c1cc2c([nH]1)CCCC2	–	5.78 µM (inactive)	8.93 µM (inactive)	–	11.4 µM (inactive)	16.7 µM (inactive)	18.7 µM (inactive)	13.8 µM (inactive)	12.1 µM (inactive)	13.8 µM (inactive)	22.9 µM (inactive)	19.1 µM (inactive)	6.52 µM (inactive)	14 µM (inactive)	12.1 µM (inactive)	13.1 µM (inactive)	4.19 µM (inactive)	11.4 µM (inactive)	–
CCOC(=O)c1ccc(/N=N/N(C)C(=O)C(C)N)cc1 (stereo not given)	72.4 µM (inactive)	> 100 µM (inactive)	> 100 µM (inactive)	> 100 µM (inactive)	> 100 µM (inactive)	> 100 µM (inactive)	16.7 µM (inactive)	> 100 µM (inactive)	> 100 µM (inactive)	> 100 µM (inactive)	–	> 100 µM (inactive)	> 100 µM (inactive)	> 100 µM (inactive)	> 100 µM (inactive)	> 100 µM (inactive)	78.3 µM (inactive)	> 100 µM (inactive)	> 100 µM (inactive)
CC(=O)Nc1ccc(/N=C2\C(c3ccccc3)=C(SC3=C(c4ccccc4)/C(=N\c4ccc(NC(C)=O)cc4)c4ccccc43)c3ccccc32)cc1	32.1 µM (inactive)	27 µM (inactive)	28.8 µM (inactive)	27 µM (inactive)	27.2 µM (inactive)	31.3 µM (inactive)	26.7 µM (inactive)	33.8 µM (inactive)	39.5 µM (inactive)	15.8 µM (inactive)	35.8 µM (inactive)	56 µM (inactive)	–	32 µM (inactive)	37.8 µM (inactive)	50.8 µM (inactive)	32.8 µM (inactive)	31.1 µM (inactive)	12.9 µM (inactive)
Cc1ccc(NC(=O)CC/C(CC(=O)c2ccc(Cl)cc2)=N\NC(=O)C(=O)NN)cc1C	> 100 µM (inactive)	> 100 µM (inactive)	> 100 µM (inactive)	> 100 µM (inactive)	> 100 µM (inactive)	> 100 µM (inactive)	> 100 µM (inactive)	> 100 µM (inactive)	> 100 µM (inactive)	> 100 µM (inactive)	> 100 µM (inactive)	> 100 µM (inactive)	> 100 µM (inactive)	> 100 µM (inactive)	–	–	–	–	–
O=[N+]([O-])c1ccc(C[P+]2(c3ccccc3)CCCCC2)cc1.[O-][Cl+3]([O-])([O-])[O-]	> 100 µM (inactive)	> 100 µM (inactive)	> 100 µM (inactive)	> 100 µM (inactive)	> 100 µM (inactive)	> 100 µM (inactive)	> 100 µM (inactive)	–	> 100 µM (inactive)	> 100 µM (inactive)	> 100 µM (inactive)	> 100 µM (inactive)	> 100 µM (inactive)	> 100 µM (inactive)	–	–	–	–	–
CC1=C(C(=O)Nc2cc(F)c(F)cc2F)C(c2cccc([N+](=O)[O-])c2)C(C(=O)Nc2ccccc2C(F)(F)F)=C(C)N1 (stereo not given)	23.5 µM (inactive)	21.3 µM (inactive)	17.9 µM (inactive)	22.8 µM (inactive)	25.4 µM (inactive)	16.6 µM (inactive)	18.5 µM (inactive)	18.7 µM (inactive)	18 µM (inactive)	22.1 µM (inactive)	23.2 µM (inactive)	30.7 µM (inactive)	–	28.7 µM (inactive)	–	–	–	–	–
N#C/C(=C(/S)Nc1ccccc1)c1nc2ccccc2[nH]1	1 µM (active)	> 10 µM (inactive)	> 10 µM (inactive)	> 10 µM (inactive)	> 10 µM (inactive)	> 10 µM (inactive)	> 10 µM (inactive)	> 10 µM (inactive)	> 10 µM (inactive)	> 10 µM (inactive)	0.634 µM (active)	> 10 µM (inactive)	> 10 µM (inactive)	> 10 µM (inactive)	–	–	–	–	–
CC(=O)C1Cn2c(=O)c3cc4ccccc4cc3c(=O)n2C=C1C (stereo not given)	> 100 µM (inactive)	> 100 µM (inactive)	> 100 µM (inactive)	> 100 µM (inactive)	> 100 µM (inactive)	> 100 µM (inactive)	97.9 µM (inactive)	> 100 µM (inactive)	> 100 µM (inactive)	91.4 µM (inactive)	> 100 µM (inactive)	> 100 µM (inactive)	–	> 100 µM (inactive)	–	–	–	–	–
CCOP1(=O)C=CC(Cl)=C(C)C1 (stereo not given)	23.4 µM (inactive)	18.3 µM (inactive)	19.2 µM (inactive)	14.7 µM (inactive)	14.3 µM (inactive)	13 µM (inactive)	27.4 µM (inactive)	22.1 µM (inactive)	12.9 µM (inactive)	17.7 µM (inactive)	48 µM (inactive)	67.5 µM (inactive)	15 µM (inactive)	19.1 µM (inactive)	–	–	–	–	–
O=S(=O)(c1ccccc1)N1CCCC(c2ccccc2)CC1 (stereo not given)	> 100 µM (inactive)	41 µM (inactive)	–	> 100 µM (inactive)	30.8 µM (inactive)	27.5 µM (inactive)	31.2 µM (inactive)	27.8 µM (inactive)	45.9 µM (inactive)	14.6 µM (inactive)	–	93.8 µM (inactive)	> 100 µM (inactive)	42 µM (inactive)	> 100 µM (inactive)	30.4 µM (inactive)	64.6 µM (inactive)	30.6 µM (inactive)	44.1 µM (inactive)
NS(=O)(=O)c1nnc(NS(=O)(=O)c2ccc([N+](=O)[O-])cc2)s1	> 100 µM (inactive)	> 100 µM (inactive)	30.4 µM (inactive)	> 100 µM (inactive)	> 100 µM (inactive)	> 100 µM (inactive)	> 100 µM (inactive)	> 100 µM (inactive)	> 100 µM (inactive)	69.2 µM (inactive)	> 100 µM (inactive)	–	> 100 µM (inactive)	> 100 µM (inactive)	> 100 µM (inactive)	> 100 µM (inactive)	–	> 100 µM (inactive)	34.9 µM (inactive)
C=C1c2nc3ccccc3n2C=C(c2ccccc2)N1c1ccc(C)cc1	> 100 µM (inactive)	22.7 µM (inactive)	33.6 µM (inactive)	> 100 µM (inactive)	> 100 µM (inactive)	58.6 µM (inactive)	56.6 µM (inactive)	–	> 100 µM (inactive)	25.7 µM (inactive)	> 100 µM (inactive)	> 100 µM (inactive)	64.4 µM (inactive)	73.5 µM (inactive)	> 100 µM (inactive)	> 100 µM (inactive)	–	50.4 µM (inactive)	–
COc1ccc(CNc2cc(OC)cc(OC)c2)cc1	> 71.6 µM (inactive)	48.6 µM (inactive)	56.8 µM (inactive)	> 100 µM (inactive)	> 56.6 µM (inactive)	40.6 µM (inactive)	> 86.1 µM (inactive)	33.9 µM (inactive)	> 74 µM (inactive)	30.3 µM (inactive)	> 66.7 µM (inactive)	> 100 µM (inactive)	52 µM (inactive)	> 100 µM (inactive)	–	–	–	–	–
